# Patent US5877210A, “Phosphotyrosine phosphatase inhibitors or phosphotyrosine kinase activators for controlling cellular proliferation” (priority 1995, dated 1999)
# Where “and” joins values, the source holds several entries; their conditions need not be identical. Identical values can stand only once. Entries after “also recorded” stand apart in the source; their conditions may differ. Like-named read-outs stand apart in the source and are kept apart here.
# Tests used:
# Ramos cells = experiment: Anti-phosphotyrosine western blot of cell lysates; format: cell-based, human
# Jurkat = experiment: Anti-phosphotyrosine immunoblot; format: cell-based, human
# A20 = experiment: [3H]thymidine incorporation assay; format: cell-based, murine; details: for [3H]cpm incorporation: seven days; for [3H]-thymidine radioactivity incorporated: 5 days
# Procedure: (§1) For each cell type, the cells were passaged uniformly for all drug doses given during the seven-day period. The cells were then pulsed for six hours with [^3 H]thymidine. The extent of DNA synthesis was then determined by counting the radioactivity incorporated into the cells.
# (§2) For assays of cellular proliferation, cells were grown five days in the presence of the indicated concentrations of BMLOV, pulsed 6 hr with [^3 H]-thymidine (New England Nuclear, Boston, Mass.), and counted in a liquid scintillation counter. Human peripheral blood lymphocytes (PBL) from normal volunteers were isolated from lymphocyte separation medium (Litton Bionetics, Kensington, Md.) by density gradient centrifugation. Monocytes were depleted from PBL by two rounds of plastic absorption for 30 minutes at 37° C. B cells were enriched for by negative selection using complement plus monoclonal antibodies to CD2, CD3, CD4, and CD8 for complement depletion. Clonogenic assays of colony formation in methylcellulose medium were performed as previously described (F. M. Uckun et al. (1992), supra).
# (§3) The cell lines A20, 70Z-3, L1210, and P388D were used. A20 is a B cell lymphoma cell line; 70Z/3 is a B cell leukemia cell line; L1210 is a T cell leukemia cell line; and P388D is a myeloid leukemia cell line. The cells were grown for 5 days in the presence of pV(phen) and pulsed with [^3 H]-thymidine on day 5. The extent of DNA synthesis was then determined by counting the radioactivity incorporated into the cells, as in Example 5, supra. […] The effects on L1210 cells and P388D cells are particularly noteworthy because these cell lines have been extensively used by the National Cancer Institute to identify anti-cancer drugs.
# Syk tyrosine kinase = experiment: Syk tyrosine phosphorylation (anti-Syk immunoprecipitate, anti-phosphotyrosine blot) in Ramos B cells; format: cell-based, human; details: 16 hours, no antigen receptor stimulation
# Procedure: BMLOV is known to inhibit Src-family tyrosine kinases. […] Ramos B cells were treated with the indicated concentrations of BMLOV or pV(phen) for 16 hours. The cells were then lysed and the Syk tyrosine kinase was immunoprecipitated with anti-Syk antibodies. The tyrosine phosphorylation of Syk was examined by an anti-phosphotyrosine Western blot of the immunoprecipitated Syk protein following SDS-polyacrylamide gel electrophoresis (shown at left). The amount of Syk protein recovered was determined by anti-Syk Western blotting of identical samples (shown at right).
# In the experiments shown in FIG. 23, cells were treated 16 h with BMLOV and then stimulated with α-μ for 5 min. Cells were then washed and resuspended in fresh media at equal concentrations of BMLOV at 37° C. Cells were harvested and lysted at times following the initiation of α-μ stimulation as indicated. Antibody binding in immunoblots was detected by ECL.
# CEM = format: cell-based, human
# Source text: The extent to which the T cells were being killed by BMLOV treatment relative to the Ramos B cells was therefore examined. […] The percentage of cells in each quadrant is indicated. The lower right quadrant contains the viable cells.
# Ramos B cells = format: cell-based, human
# Source text: These effects were synergistic rather than additive in that an approximately 5-fold enhancement in sensitization for the combination treatment was observed relative to expected additive effects based on the use of either treatment alone.
# [1] = system: murine B cell lymphoma A20 cells; experiment: Anti-phosphotyrosine immunoblot; format: cell-based; details: 16 hr
# H3347 carcinoma cells = experiment: Anti-phosphotyrosine immunoblot; format: cell-based, human
# Ramos = experiment: [3H]thymidine incorporation assay; format: cell-based, human; details: for [3H]cpm incorporation: seven days
# Procedure: as §1, §2
# The effect of the variation of treatment time with pV(phen) on the inhibition of proliferation in Ramos cells is shown in Table 11. These cells were grown in pV(phen) for the indicated times, washed, and then grown in fresh media for the balance of the 5-day assay. These cells were pulsed with [^3 H]-thymidine on day 5.
# PP1 = experiment: Serine/threonine phosphatase PP1 inhibition; format: biochemical; details: vs CD45 and PTP1B
# [2] = system: peripheral blood lymphocytes; experiment: Leukocyte counts in mice after pV(phen); format: in vivo, BALB/C mice; details: one dose i.p.; for Absolute Counts: Eosinophil / Absolute Counts: Lymphocyte / Absolute Counts: Monocyte / Absolute Counts: Neutrophil: blood 24 hr later, individual animals
# Source text: BALB/C mice received one dose of pV(phen) i.p. and their blood was examined 24 hr later.
# [3] = system: subcutaneously implanted human ovarian carcinoma, A2780; experiment: In vivo antitumor test, A2780
# Procedure: Finally, pV(phen) was tested against subcutaneously implanted human ovarian carcinoma, A2780, in Experiment No. 54, using a treatment schedule of once daily for 9 days. Treatments (i.p.) were begun on day 10 post implant when the tumors were small but definite, e.g. […]
# [4] = system: 70Z/3 B cell leukemia cell line; experiment: [3H]thymidine incorporation assay; format: cell-based, murine; details: 702/3, 5 days
# Procedure: as §3
# P388D = experiment: [3H]thymidine incorporation assay; format: cell-based, murine; details: 5 days
# Procedure: as §3
# L1210 = experiment: [3H]thymidine incorporation assay; format: cell-based, murine; details: 5 days
# Procedure: as §3
# [5] = Expt. 54, OD 12 mg/kg/inj, qdx9;10, ip
smiles,measurement,setting,value
"Cc1occc(=O)c1[O-].Cc1occc(=O)c1[O-].[O]=[V+2] [BMLOV, Bis(maltolato)oxovanadium (IV)]",level of tyrosine phosphorylation,"Ramos cells; 50 μM BMLOV, 16 hours",high levels of tyrosine phosphorylation
same,time at which tyrosine phosphorylation begins,Ramos cells; 100 μM BMLOV,≤ 8 min
same,induction of tyrosine phosphorylation compared with sodium orthovanadate,"Ramos cells; 100 μM each, 30 min",more potent than orthovanadate
same,induction of cellular tyrosine phosphorylation,"Ramos cells; Ramos B cells, varying doses, 1 hour or 16 h",induces tyrosine phosphorylation in a dose-dependent manner; also recorded: dose-dependent induction of tyrosine phosphorylation
same,tyrosine phosphorylation response to sIg crosslinking,Ramos cells; particularly at early time points,enhanced the tyrosine phosphorylation response
same,induction of tyrosine phosphorylation,Jurkat; 16 hr,only low levels of tyrosine phosphorylation
same,[3H]cpm incorporation,A20; 1 μM BMLOV,419947 cpm
same,[3H]cpm incorporation,A20; 5 μM BMLOV,289932 cpm
same,[3H]cpm incorporation,A20; 10 μM BMLOV,66157 cpm
same,[3H]cpm incorporation,A20; 25 μM BMLOV,281 cpm
same,"sensitivity of proliferation to BMLOV, in words","A20; 25 μM, 5 or 7 days",very sensitive; also recorded: highly sensitive
same,tyrosine phosphorylation of Syk,Syk tyrosine kinase,only very slight tyrosine phosphorylation of Syk; also recorded: induced tyrosine phosphorylation of Syk in a dose-dependent manner
same,"killing by BMLOV, in words","CEM; CEM, 25 μM BMLOV, 4 days",resistant to killing
same,enhancement in sensitization relative to expected additive effects,Ramos B cells; combination of BMLOV and radiation,approximately 5 fold
same,increase in cell death relative to radiation alone,"Ramos B cells; ramos b cells, 1 µM",10 fold
same,increase in clonogenic cell death relative to radiation alone,"Ramos B cells; ramos b cells, 2 µM",50 fold
same,induction of tyrosine phosphorylation,[1],highly responsive
same,induction of tyrosine phosphorylation,H3347 carcinoma cells,weakly induce tyrosine phosphorylation
same,[3H]cpm incorporation,Ramos; 1 μM BMLOV,289936 cpm
same,[3H]cpm incorporation,Ramos; 5 μM BMLOV,65545 cpm
same,[3H]cpm incorporation,Ramos; 10 μM BMLOV,167 cpm
same,[3H]cpm incorporation,Ramos; 25 μM BMLOV,149 cpm
same,"sensitivity of proliferation to BMLOV, in words","Ramos; 10 and 25 μM, 5 or 7 days",highly sensitive
same,concentration for similar inhibition relative to phosphotyrosine phosphatases,PP1,over 100 fold
"[Na+].[O]=[V-]12([O][O]1)[O][O]2.c1cnc2c(c1)ccc1cccnc12 [pV(phen), sodium (1,10-phenanthroline) oxodiperoxovanadium (V)]","proteins tyrosine phosphorylated, compared with BMLOV","Ramos cells; 16 hours, particularly at 10 μM",causes the tyrosine phosphorylation of a significantly larger group of proteins than does BMLOV
same,induction of tyrosine phosphorylation by pV(phen),"Ramos cells; Ramos B cells, 16 hours",high level of tyrosine phosphorylation
same,induction of tyrosine phosphorylation by pV(phen),"Jurkat; Jurkat T cells, 16 hours",high level of tyrosine phosphorylation
same,[3H]-thymidine radioactivity incorporated,A20; 5 μM pV(phen),73 ± 23
same,[3H]-thymidine radioactivity incorporated,A20; 10 μM pV(phen),76 ± 48
same,tyrosine phosphorylation of Syk,Syk tyrosine kinase,strongly induces tyrosine phosphorylation of the Syk tyrosine kinase
same,cells killed,"CEM; CEM, 10 μM pV(phen), three days",all the cells
same,cells killed,"CEM; human, cem cells, 48 h, 10 µM",98%
same,Absolute Counts: Eosinophil,[2]; Dose 1 μM,244 and 26
same,Absolute Counts: Lymphocyte,[2]; Dose 1 μM,3848 and 1612
same,Absolute Counts: Monocyte,[2]; Dose 1 μM,488 and 104
same,Absolute Counts: Neutrophil,[2]; Dose 1 μM,1525 and 858
same,Absolute Counts: Eosinophil,[2]; Dose 2 μM,78 and 81
same,Absolute Counts: Lymphocyte,[2]; Dose 2 μM,1560 and 2511
same,Absolute Counts: Monocyte,[2]; Dose 2 μM,390 and 0
same,Absolute Counts: Neutrophil,[2]; Dose 2 μM,1872 and 5508
same,"effect on monocytes, in words",[2]; 24 hr,no consistent effect was observed
same,"number of neutrophils, in words",[2]; 24 hr,substantially increased
same,"number of peripheral blood lymphocytes, in words",[2]; 24 hr,markedly reduced
same,LCK (log cell kill),[3]; [5],0.4
same,T-C (delay in primary tumor growth),[3]; [5],4.0 days
same,MTD,"[3]; once daily for 9 days, i.p., cumulative dose of 45 mg/kg",5 mg/kg per injection
same,[3H] Thymidine Incorporation,"Ramos; 1 μM pV(phen) for 4 hr, then fresh media to day 5",540438 ± 86014 cpm
same,[3H] Thymidine Incorporation,"Ramos; 1 μM pV(phen) for 8 hr, then fresh media to day 5",444806 ± 20361 cpm
same,[3H] Thymidine Incorporation,"Ramos; 1 μM pV(phen) for 24 hr, then fresh media to day 5",396533 ± 16116 cpm
same,[3H] Thymidine Incorporation,Ramos; 1 μM pV(phen) for 5 d,1969 ± 1295 cpm
same,inhibition of proliferation,"Ramos; 1 μM pV(phen), full 5-day treatment",≥ 99%
same,[3H] Thymidine Incorporation,"Ramos; 5 μM pV(phen) for 4 hr, then fresh media to day 5",502956 ± 20963 cpm
same,[3H] Thymidine Incorporation,"Ramos; 5 μM pV(phen) for 8 hr, then fresh media to day 5",351849 ± 7357 cpm
same,[3H] Thymidine Incorporation,"Ramos; 5 μM pV(phen) for 24 hr, then fresh media to day 5",312 ± 83 cpm
same,[3H] Thymidine Incorporation,Ramos; 5 μM pV(phen) for 5 d,615 ± 268 cpm
same,[3H] Thymidine Incorporation,"Ramos; 10 μM pV(phen) for 4 hr, then fresh media to day 5",554511 ± 10077 cpm
same,[3H] Thymidine Incorporation,"Ramos; 10 μM pV(phen) for 8 hr, then fresh media to day 5",185021 ± 11112 cpm
same,[3H] Thymidine Incorporation,"Ramos; 10 μM pV(phen) for 24 hr, then fresh media to day 5",1862 ± 1461 cpm
same,[3H] Thymidine Incorporation,Ramos; 10 μM pV(phen) for 5 d,982 ± 519 cpm
same,[3H] Thymidine Incorporation,"Ramos; 25 μM pV(phen) for 4 hr, then fresh media to day 5",433034 ± 74272 cpm
same,[3H] Thymidine Incorporation,"Ramos; 25 μM pV(phen) for 8 hr, then fresh media to day 5",877 ± 93 cpm
same,[3H] Thymidine Incorporation,"Ramos; 25 μM pV(phen) for 24 hr, then fresh media to day 5",399 ± 231 cpm
same,[3H] Thymidine Incorporation,Ramos; 25 μM pV(phen) for 5 d,651 ± 295 cpm
same,[3H]-thymidine radioactivity incorporated,[4]; 5 μM pV(phen),53 ± 27
same,[3H]-thymidine radioactivity incorporated,[4]; 10 μM pV(phen),49 ± 34
same,[3H]-thymidine radioactivity incorporated,P388D; 5 μM pV(phen),2513 ± 1424
same,[3H]-thymidine radioactivity incorporated,P388D; 10 μM pV(phen),362 ± 60
same,[3H]-thymidine radioactivity incorporated,L1210; 5 μM pV(phen),244 ± 155
same,[3H]-thymidine radioactivity incorporated,L1210; 10 μM pV(phen),464 ± 116
